Data published in patent US11697689B2, “Use of antibody against O-acetylated GD2 ganglioside to improve the therapeutic potential of drugs” (OGD2 PHARMA, priority 2016, dated 2023).
Like-named read-outs stand apart in the source and are kept apart here.

Columns and labels:
LAN-1 cells [1] = test: Incorporation of anti-cancer agents in cells, flow cytometry; assay type: cell-based, human; conditions: 5-FU and cisplatin 1.52 μM, doxorubicin […], mAb 8B6 40 μg/ml, 30 minutes at 37° C.
Procedure: FIG. 3: Internalization of 5-FU, Cisplatin and doxorubicin in neuroblastoma cells. LAN-1 cells were treated with 5-FU (1.52 μM)—Panel A, or Cisplatin (1.52 μM)—Panel B, or doxorubicin (4.7 μM)—Panels C and D with combinations of isotype-matched negative control mouse IgG3 (40 μg/ml) or anti-OAcGD2 mAb 8B6, anti-OAcGD2 mAb c8B6.14b, anti-OAcGD2 mAb c8B6.15b (40 μg/ml). Anti-cancer agents and mAb were incubated during 30 minutes at 37° C. Neuroblastoma cells were fixed with PFA 4% before FACS acquisition. Positive control was performed by treatment of fixed LAN-1 cells with saponin 0.05% in combination with anti-cancer agents during 30 minutes. Incorporation of anti-cancer agents in tumor cells was assessed by flow cytometry (excitation with a 535 nm laser) and results are expressed in percentage of cells having incorporated anti-cancer agent in total cell population.
Combinations of anti-OAcGD2 mAb 8B6 with other anti-cancer agents were also assayed on LAN-1 neuroblastoma cell line. In this experiment, incorporation of 5-FU, Cisplatin and doxorubicin within the cells in the presence of mAb 8B6 or CTRL-(IgG) was detected using flow cytometry (excitation with a 535 nm laser). Anti-cancer agents and mAb were incubated during 30 minutes at 37° C.

[2] = test system: neuroblastoma cell lines NXS2, IMR5, LAN-1 and LAN-5; conditions: NXS2, IMR5, LAN-1, LAN-5
Procedure: (§1) The antiproliferative activity of the anti-cancer agents was evaluated using the MIT Cell Proliferation Assay Kit (Roche Diagnostic, Indianapolis, USA). The MTT assay is based on the reduction of yellow tetrazolium MIT (3-(4,5-dimethylthiazolyl-2)-2,5-diphenyltetrazolium bromide) by metabolically active cells forming purple formazan crystals. The purple formazan is solubilized with detergent and quantified spectrophotometrically at 570 nm.
Cells in the log phase of growth were seeded into 96-well (5×10^3 for LAN-1 and NXS2 cells; 1×10^4 for IMR5 and LAN-5 cells) treated plates in 100 μl of complete media. The cells were allowed to attach during an overnight incubation prior to treating with test agents. […] Equivalent culture media volume was added to control wells. Three conditions were used: anti-cancer agent alone, mAb 8B6 alone, mAb 8B6+anti-cancer agent. Cells were exposed to test agents for 48 hours. Following the exposure to test agents, 15 μl of MIT reagent was added to each well. […] The absorbance at 570 nm was measured the following day using a iMark™ Microplate Absorbance Reader plate reader (Bio-Rad). […] Percent of Control values were calculated by dividing the absorbance values for each test well by the No Drug Control average and multiplying by 100.
Combination data was analyzed using CompuSyn® software to calculate Combination Index values to assess synergy. […]

LAN-5 cells [3] = test: MTT cell proliferation assay, drug with or without mAb 8B6; assay type: cell-based, human; conditions: for EC50: Homo sapiens, 48 hours
Procedure: Equivalent culture media volume was added to control wells. […] Cells were exposed to test agents for 48 hours.

[4] = test system: NXS2 neuroblastoma experimental liver metastasis; test: Murine NXS2 neuroblastoma experimental liver metastasis model; assay type: in vivo, A/J mice; conditions: day 28 after NXS2 inoculation; mAb 8B6 150 μg cumulative i.v.; isotretinoin 10 mg/kg per os; topotecan 0.36 mg/kg i.p.; doxorubicin 1 mg/kg i.p.; vehicle 2.5±0.18 g; mean±SEM
Procedure: Mice (n=10/group) were inoculated with 2.5×10^5 NXS2 mouse neuroblastoma cells by i.v. injections. 8B6 mAb treatment was started on day 3 after tumor cell inoculation twice a week for 3 consecutive weeks (cumulative dose=150 μg, A-C). All chemotherapeutic treatments were started at day 10 post-tumor inoculation. Panel A: isotretinoin was given at 10 mg/kg, per os, five times weekly for 2 weeks. […] Panel C: doxorubicin was given by i.p. injections at 1 mg/kg five times weekly for 2 weeks. Mice were euthanized 28 days post-tumor inoculation. Anti-tumor efficacy was evaluated by determining the liver weight on the fresh specimen compared to the mice treated with vehicle only. The liver weight is indicative of hepatic metastasis number. The y-axis starts at 0.8 g corresponding to the average normal liver weight. Data are presented as the mean±SEM.
We inoculated 2.5×10^5 tumor cells by tail vein in PBS. […] Anti-OAcGD2 mAb 8B6 treatment was started at Day 3 after tumor cells injection. Mice received by i.v. injection twice a week 25 μg mAb 8B6 for 3 consecutive weeks; (day 3, 7, 10, 14, 17 and 21; total dose=150 μg). Isotretinoin was given orally diluted in Ora-Plus© at 10 mg/kg daily for 2 consecutive weeks (on days 10-14 and 17-21). […] Doxorubicin was given by i.p. injection at 1 mg/kg daily for two weeks (on days 10-14 and 17-21). Mice were sacrificed after 28 days post inoculation, and anti-tumor efficacy was evaluated by liver weight of the fresh specimen as well as hepatic metastasis number. • 6.2—Results
Anti-cancer agents were given at low doses as previously reported in the literature in order to minimize related side effects. Three days after i.v. NSX2 tumor cell inoculation, ten mice were assigned to treatment with single agent, or combination of mAb 8B6 and anti-cancer agents as described previously. On day 28 after tumor cell inoculation, we determined the number of liver metastases and the liver weight after mice euthanasia.

NXS2 cells [5] = test: MTT cell proliferation assay, drug with or without mAb 8B6; assay type: cell-based, murine; conditions: for EC50: Mus musculus, 48 hours
Procedure: as §1
(§2) Cells in the log phase of growth were seeded into 96-well (5×10^3 for LAN-1 and NXS2 cells; 1×10^4 for IMR5 and LAN-5 cells) treated plates in 100 μl of complete media. The cells were allowed to attach during an overnight incubation prior to treating with test agents. […] Equivalent culture media volume was added to control wells. Three conditions were used: anti-cancer agent alone, mAb 8B6 alone, mAb 8B6+anti-cancer agent. Cells were exposed to test agents for 48 hours. Following the exposure to test agents, 15 μl of MIT reagent was added to each well. The plates were returned to the incubator for four hours. Following the incubation period, kit supplied detergent reagent (100 μl) was added to all wells. The plates were wrapped in plastic wrap to prevent evaporation and allowed to sit at room temperature in the dark overnight. The absorbance at 570 nm was measured the following day using a iMark™ Microplate Absorbance Reader plate reader (Bio-Rad). Assays were performed in quadruplicate and experiments were repeated three times. […] The median-effect equation used by CompuSyn® software derived from the mass-action law principle at equilibrium steady state. […] Percent of Control values were calculated by dividing the absorbance values for each test well by the No Drug Control average and multiplying by 100.
(§3) Combination data was analyzed using CompuSyn® software to calculate Combination Index values to assess synergy. […] The dosage, fraction affected and molar ratio of compounds tested in combination were entered into the CompuSyn® software for evaluation of the presence/absence of synergy. CompuSyn® assigns a Combination Index value which rates the level of compounds' inhibiting 50% of the cell proliferation. […] See Chou, PHARMACOL.
(§4) NXS2 cells were grown in DMEM 4.5 g/L de glucose with 10% heat-inactivated fetal calf serum, 2 mM L-Glutamine, 100 units/ml penicillin, and 100 μg/ml streptomycin, at 37° C. in 5% CO2.

LAN-5 cells [6] = test: OAcGD2 expression (mAb 8B6 binding) after drug exposure, flow cytometry; conditions: isotretinoin 8, topotecan 1, doxorubicin 5 μM (Table 1), mean ± SD, n = 3, untreated 13.2 ± 0.7
LAN-1 cells [7] = test: as above; conditions: isotretinoin 40, topotecan 5, doxorubicin 3 μM (Table 1), mean ± SD, n = 3, untreated 12.1 ± 0.1
LAN-1 cells [8] = test: MTT cell proliferation assay, drug with or without mAb 8B6; assay type: cell-based, human; conditions: for EC50: Homo sapiens, 48 hours
Procedure: as §1, §2, §3, §4

IMR5 cells [9] = test: as above; assay type: cell-based, human; conditions: for EC50: Homo sapiens, 48 hours
Procedure: as §1, §2, §3, §4

[10] = Systemic tolerability, body weight over the treatment period; assay type: in vivo, A/J mice; conditions: same groups and doses as the NXS2 liver metastasis study
Text: Mean weight of group of mice (n=10) presented in FIG. 6 at day 0 was defined as 100% weight. Weight in each group remained stable for the period of treatment. Δ, mice treated with mAb 8B6; ◯, mice treated with anti-cancer agent; □, mice treated with chemotherapeutic drug plus mAb 8B6.
Weight loss is used as a sensitive marker for health monitoring. We therefore performed a parallel analysis of the body weight over the treatment period. […] The body-weight difference between the two groups treated with doxorubicin compared to the non-doxorubicin group, however, fails to be significant during the treatment period (p>0.05).

IMR5 cells [11] = test: OAcGD2 expression (mAb 8B6 binding) after drug exposure, flow cytometry; conditions: isotretinoin 40, topotecan 1, doxorubicin 7 μM (Table 1), mean ± SD, n = 3, untreated 14.6 ± 0.4
NXS2 cells [12] = test: as above; conditions: isotretinoin 75, topotecan 0.5, doxorubicin 3 μM (Table 1), mean ± SD
[13] = test system: GLIO 5 glioblastoma primary cells; test: MTT assay, temozolomide with or without mAb 8B6; assay type: cell-based; conditions: Homo sapiens, temozolomide alone, 72 hours
Procedure: (§5) Tumor specimens were collected from patients with a histologic diagnosis of GBM. Tumors were harvested at the time of surgical resection and immediately put into culture after dissociation of the tumors using the gentleMACs™ Dissociator (Miltenyi) according to the manufacturer's instructions.
(§6) Equivalent culture media volume was added to control wells. […] Cells were exposed to test agents for 72 hours. Following the exposure to test agents, 15 μl of MTT reagent was added to each well.
(§7) Cell viability was measured using the MTT assay and half maximal effective concentration (EC50) was calculated as previously disclosed.

[14] = test system: HARCI glioblastoma primary cells; test: MTT assay, temozolomide with or without mAb 8B6; assay type: cell-based; conditions: Homo sapiens; HARCl; temozolomide alone; 72 hours
Procedure: as §5, §6, §7

[15] = test system: AMBMa glioblastoma primary cells; test: MTT assay, temozolomide with or without mAb 8B6; assay type: cell-based; conditions: Homo sapiens, temozolomide alone, 72 hours
Procedure: as §5, §6, §7

[16] = test system: DUASOII glioblastoma primary cells; test: MTT assay, temozolomide with or without mAb 8B6; assay type: cell-based; conditions: Homo sapiens, temozolomide alone, 72 hours
Procedure: as §5, §6, §7

[17] = test system: DUGAn glioblastoma primary cells; test: MTT assay, temozolomide with or without mAb 8B6; assay type: cell-based; conditions: Homo sapiens, temozolomide alone, 72 hours
Procedure: as §5, §6, §7

[18] = test system: GUITh glioblastoma primary cells; test: MTT assay, temozolomide with or without mAb 8B6; assay type: cell-based; conditions: Homo sapiens, temozolomide alone, 72 hours
Procedure: as §5, §6, §7

[19] = LA-N-5, drug alone, read-out: EC50
[20] = LA-N-5, with mAb 8B6 40 μg/ml, read-out: EC50 with mAb 8B6
[21] = with mAb 8B6 40 μg/ml, read-out: EC50 with mAb 8B6
[22] = LAN1, drug alone, read-out: EC50
[23] = LAN1, with mAb 8B6 40 μg/ml, read-out: EC50 with mAb 8B6
[24] = IMR-5, drug alone, read-out: EC50
[25] = IMR-5, with mAb 8B6 40 μg/ml, read-out: EC50 with mAb 8B6

Row | SMILES | cells positive for the anti-cancer agent when incubated with mAb 8B6 versus agent alone and CTRL-(IgG) (LAN-1 cells [1]) | EC50 (LAN-5 cells [3]; [19]) | EC50 (LAN-5 cells [3]; [20]) | mean liver weight [4] | EC50 (NXS2 cells [5]; drug alone, read-out: EC50) | EC50 (NXS2 cells [5]; [21]) | Expression level of OAcGD2 (MFI ratio mAb 8B6 / mAb 7H2) after 48 hours exposure (LAN-5 cells [6]) | Expression level of OAcGD2 (MFI ratio mAb 8B6 / mAb 7H2) after 48 hours exposure (LAN-1 cells [7]) | EC50 (LAN-1 cells [8]; [22]) | EC50 (LAN-1 cells [8]; [23]) | EC50 (IMR5 cells [9]; [24]) | EC50 (IMR5 cells [9]; [25]) | body weight over the treatment period [10] | Expression level of OAcGD2 (MFI ratio mAb 8B6 / mAb 7H2) after 48 hours exposure (IMR5 cells [11]) | Expression level of OAcGD2 (MFI ratio mAb 8B6 / mAb 7H2) after 48 hours exposure (NXS2 cells [12]; n = 3, untreated 7.3 ± 0.9) | also measured
1 | O=c1[nH]cc(F)c(=O)[nH]1 [5-FU, 5-Fluorouracil] | more cells were positive | – | – | – | – | – | – | – | – | – | – | – | – | – | – | –
2 | COc1cccc2c1C(=O)c1c(O)c3c(c(O)c1C2=O)C[C@@](O)(C(=O)CO)C[C@@H]3O[C@H]1C[C@H](N)[C@H](O)[C@H](C)O1 [Doxorubicin, doxorubicin] | more cells were positive | 2.09 µM | 0.13 µM | 1.75 ± 0.09 g | 2.75 µM | 0.016 µM | 14.36 ± 1.4 | 13.76 ± 1.8 | 4.67 µM | 0.014 µM | 6.3 µM | 0.01 µM | a loss of body weight after day 17 | 15.24 ± 0.21 | 6.48 ± 2.28 | median combination index values across the tested neuroblastoma cell lines [2]: ≤ 0.30; Combination index 50 Values (LAN-5 cells [3]; CompuSyn, below 1 = synergy): 0.16; Combination index 50 Values (NXS2 cells [5]; CompuSyn, below 1 = synergy): 0.30; Combination index 50 Values (LAN-1 cells [8]; CompuSyn, below 1 = synergy): 0.05; Combination index 50 Values (IMR5 cells [9]; CompuSyn, below 1 = synergy): 0.10; Expression level of OAcGD2 (MFI ratio mAb 8B6 / mAb 7H2) after 48 hours exposure (NXS2 cells [12]; n = 3, untreated 7.3 ± 0.9, listed as doxorubicin): remained unchanged
3 | CC1=C(/C=C/C(C)=C/C=C/C(C)=C\C(=O)O)C(C)(C)CCC1 [Isotretinoin, isotretinoin] | – | 37.2 µM | 31.3 µM | 2.0 ± 0.24 g | 75.7 µM | 59.3 µM | 16.8 ± 0.7 | 12.0 ± 0.1 | 7.4 µM | 4.3 µM | 32.9 µM | 24 µM | no loss of body weight | 19.2 ± 0.8 | 7.5 ± 1.1 | Expression level of OAcGD2 (MFI ratio mAb 8B6 / mAb 7H2) after 48 hours exposure (NXS2 cells [12]; n = 3, untreated 7.3 ± 0.9, listed as isotretinoin): remained unchanged
4 | CC[C@@]1(O)C(=O)OCc2c1cc1n(c2=O)Cc2cc3c(CN(C)C)c(O)ccc3nc2-1 [Topotecan, topotecan] | – | 12.4 µM | 0.004 µM | 1.22 ± 0.09 g | 0.45 µM | 0.15 µM | – | – | 0.771 µM | 0.015 µM | 0.011 µM | 0.007 µM | no loss of body weight | – | – | –
5 | N.N.[Cl][Pt][Cl] [cisplatin] | more cells were positive | – | – | – | – | – | – | – | – | – | – | – | – | – | – | –
6 | Cn1nnc2c(C(N)=O)ncn2c1=O [temozolomide] | – | – | – | – | – | – | – | – | – | – | – | – | – | – | – | EC50 [13]: 1590 µM; EC50 [14]: 13100 µM; EC50 [15]: 784 µM; EC50 [16]: 584 µM; EC50 [17]: 1120 µM; EC50 [18]: 3160 µM
